Test results published in patent US5489592A, “3,4-dihydro-4-oxo-3-(2-propenyl)-1-phthalazineacetic acids and derivatives, their preparations and medicines containing them” (Lipha, Lyonnaise Industrielle Pharmaceutique, priority 1991, dated 1996).
pIC50: −log10 of the molar value.

Key:
[1] = tested on: level of sorbitol in the crystallins; test: In vivo study: reduction in the accumulation of sorbitol in streptozotocin-diabetic rats; set-up: species or system male Wistar rats; conditions: Rattus norvegicus, oral, 4, 30 and 52 h after streptozotocin (60 mg/kg i.v.), 50% reduction, confidence interval in parentheses
Procedure: 2) In vivo study: reduction in the accumulation of sorbitol
Male Wistar rats, weighing 200 to 250 g, are made diabetic by intravenous injection of streptozotocin (60 mg/kg). They then receive an oral treatment of the products to be tested, in the form of a 10% suspension in gum arabic, 4 hours, 30 hours and 52 hours after injection of streptozotocin. Eighteen hours after the last oral treatment, the rats are stunned and decapitated and their crystallins are then withdrawn. After extraction, the level of sorbitol in the crystallins is measured according to the enzymatic method described by H. U. Bergmeyer (Methods of Enzymatic Analysis, edited by H. U. Bergmeyer, Academic Press, New York, 3, p. 1323, 1974).
Various doses of products are tested and the inhibitions are calculated with respect to a control batch of diabetic rats. The dose necessary for a 50% reduction in the level of sorbitol is then evaluated by linear interpolation.

aldose reductase = biological target: T1, aldose reductase (Rattus norvegicus, UniProt P07943); test: In vitro study: inhibition of aldose reductase; assay type: biochemical, male Wistar rats; conditions: rat crystallin enzyme, NADPH, L-glyceraldehyde, 340 nm; confidence interval in parentheses
T1 construct: The aldose reductase used is obtained from crystallins from male Wistar rats; from tissue; host or cells: eye lens of male Wistar rats, enzymatic extract
Procedure: 1) In vitro study: inhibition of aldose reductase
The aldose reductase used is obtained from crystallins from male Wistar rats according to a modification of the method of S. Hayman et al. (Journal of Biological Chemistry, 240, p. 877, 1965). The enzymatic extract is diluted in a phosphate buffer in the presence of NADPH and of various concentrations of the products to be tested. The reaction is triggered by L-glyceraldehyde and the rate of reaction is measured by monitoring the disappearance of NADPH by spectrophotometry at 340 nm. The inhibition of the rate of reaction is calculated for each concentration of products and then the concentration necessary for a 50% inhibition (IC50) is evaluated by linear interpolation.

Row | Structure (SMILES) | ED50 [1] [mg/kg] | pIC50 (aldose reductase)
1 | O=C(O)Cc1nn(C/C=C/c2cccc(C(F)(F)F)c2F)c(=O)c2ccccc12 [Example B1, (E) -3-[3-[2-fluoro-3-(trifluoromethyl)phenyl]-2-propenyl]-3,4-dihydro-4-oxo-1-phthalazineacetic acid] | 4.8 | 7.99
2 | O=C(O)Cc1nn(C/C=C/c2c(F)ccc(F)c2F)c(=O)c2ccccc12 [Example B38, (E) -3-[3-(2,3,6-trifluorophenyl)-2-propenyl]-3,4-dihydro-4-oxo-1-phthalazineacetic acid] | 4.7 | 8.05
3 | O=C(O)Cc1nn(C/C=C/c2c(F)ccc(Br)c2F)c(=O)c2ccccc12 [Example B40, (E) -3-[3-(3-bromo-2,6-difluorophenyl)-2-propenyl]-3,4-dihydro-4-oxo-1-phthalazineacetic acid] | 6.1 | 8.09
4 | O=C(O)Cc1nn(C/C=C/c2c(F)ccc(C(F)(F)F)c2F)c(=O)c2ccccc12 [Example B41, (E) -3-[3-[2,6-difluoro-3-(trifluoromethyl)phenyl]-2-propenyl]-3,4-dihydro-4-oxo-1-phthalazineacetic acid] | 4.4 | 8.07
5 | O=C(O)Cc1nn(C/C=C/c2c(F)c(F)cc(F)c2F)c(=O)c2ccccc12 [Example B43, (E) -3-[3-(2,3,5,6-tetrafluorophenyl)-2-propenyl]-3,4-dihydro-4-oxo-1-phthalazineacetic acid] | 5.8 | 8.02
6 | O=C(O)Cc1nn(C/C(F)=C/c2cccc(C(F)(F)F)c2)c(=O)c2ccccc12 [Example B49, (Z) -3-[2-fluoro-3-[3-(trifluoromethyl)phenyl]-2-propenyl]-3,4-dihydro-4-oxo-1-phthalazineacetic acid] | 8.2 | 8.08
